Columns and labels:
A549 cells = experiment: Matrigel invasion assay; type: cell-based, human; conditions: Matrigel chambers, 24 h
Procedure: Invasion assays were performed using 24-well Matrigel invasion chambers (Corning, Corning, NY, USA), with the protocol provided by the manufacturer. A549 cells in 6-well plate starved in RPMI 1640 containing 0.1% FBS for 24 h were pre-treated with Oxy210 or DMSO for 2 h. 2 × 10^4 cells were seeded in each of the upper chambers containing RPMI 1640 supplemented with 0.1% FBS and the test agents. Each of the lower chambers contained RPMI 1640 supplemented with 5% FBS and the corresponding test agents. The cells were cultured for 24 h before assessment of cell invasion. Non-invaded cells in the upper surface of the membrane were removed using a cotton swab and the invaded cells in the lower surface were fixed and stained with 100% methanol and 0.4% trypan blue, respectively. The invaded cells were imaged and counted under the microscope at 40X total magnification.
Figure 9 Inhibition of TGFβ-induced invasive activity of A549 cells. In vitro invasion assays were performed using chambers with matrigel-coated membrane as described in the Materials and Methods section. (a) Images of invaded cells on the membranes. (b) Quantitative analysis of invasion of A549 cells induced by TGFβ in the absence or presence of Oxy210. Data from a representative experiment are reported as the mean of triplicate determinations ± SD (** p < 0.01 vs. TGFβ treated cells; ## p < 0.01 vs. control).

[1] = system: EGF or Il-1β target gene expression (fibronectin, IL-6) in NIH3T3-E1 or A549 cells; experiment: Target gene expression after stimulation with EGF or Il-1β (pathway specificity); type: cell-based
Text: We content that the biological properties of Oxy210 described here are specific inhibitory effects, by and large limited to Hh and TGF β signaling, rather than the result of nonspecific binding events and/or a pan inhibition of cellular signaling.

[2] = system: Gli1 transcriptional activity; experiment: Gli responsive luciferase reporter in NIH3T3-E1 cells over expressing Gli1; type: cell-based, mouse; conditions: 10 μM, 72 hrs
Procedure: NIH3T3-E1 cells cultured in 24 well-plates at 90% confluence were transiently transfected with 0.1 μg of Smad response-element reporter (SBE-Luciferase) plasmid (Qiagen), or with 0.1 μg of Gli response-element reporter (pGL3b-8xGli-Luciferase) plasmid, and 10 ng of pSV40-Renilla-Luciferase plasmid (Promega, Madison, WI, USA) with or without co-transfection with 10ng of Gli1 overexpression vector, pSRα-Gli1 using a Lipofectamine LTX Plus transfection reagent, as previously described. Sufu-/- cells cultured in 24 well-plates at 90% confluence were transiently transfected with 0.1μg of pGL3b-8xGli-Luciferase plasmid, and 10 ng of pSV40-Renilla-Luciferase plasmid. 6 hrs after transfection, cells were treated with test agents for 72 h. […] Then the firefly and Renilla luciferase activities were measured using a dual luciferase kit (Promega) and a GloMax-96 Microplate Luminometer (Promega) or a plate reader-SpectraMax iD3 (Molecular Devices, San Jose, CA, USA). […]
Figure 5 Oxy210 acts downstream of Smo. […] After 72 h, RNA was extracted and analyzed by Q-RT-PCR for the expression of Hh target genes Gli1 and Hip, normalized to Oaz1 expression. […] Luciferase activity was measured and normalized to the Renilla luciferase activity. […]

With `C[C@]12CC[C@H]3[C@@H](CC=C4C[C@@H](O)CC[C@@]43C)[C@@H]1CC[C@@H]2[C@](C)(O)CCc1cccnc1` [Oxy210, (3S,8S,9S,10R,13S,14S,17S)-17-((R)-2-hydroxy-4-(pyridin-3-yl)butan-2-yl)-10,13-dimethyl-2,3,4,7,8,9,10,11,12,13,14,15,16,17-tetradecahydro-1H-cyclopenta[a]phenanthren-3-ol] the TGFβ-induced invasive activity (A549 cells) was “inhibited this invasive activity in a dose dependent manner”, the “inhibition of EGF or Il-1β target gene expression (fibronectin, IL-6)” value [1] was “did not result in significant inhibition” and the “transcriptional activity of Gli responsive luciferase reporter trans-activated by exogenous Gli1” value [2] was “significantly inhibited”.

From publication PMC6829886, “Inhibition of Non-Small Cell Lung Cancer Cells by Oxy210, an Oxysterol-Derivative that Antagonizes TGFβ and Hedgehog Signaling” (Cells, 2019)
